Several values for one entry are separate records, joined by “and”; a condition that tells them apart may be missing. Identical values can stand only once. Inconclusive results and toxic doses are left out.
Tested on: L1210 leukemia ip in BDF1 mice, survival T/C
Test: NCI In Vivo Anticancer Drug Screen. Data for tumor model L1210 Leukemia (intraperitoneal) in B6D2F1 (BDF1) mice
Settings: higher = longer survival
Outline: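 Survival endpoint. Drug-treated group vs vehicle group, expressed as T divided by C. Tumor passaged by transplantation.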

NC(=S)N/N=C/c1ccc(O)cn1
T/C (endpoint: mean survival time, dose: 3.13 mg/kg/injection, schedule: Q03HX024 (ip), vehicle: Klucel (hydroxypropylcellulose) (HPC)): 120 % of control
T/C (endpoint: mean survival time, dose: 3.13 mg/kg/injection, schedule: Q03HX024 (ip), vehicle: other): 120 % of control
T/C (endpoint: mean survival time, dose: 3.13 mg/kg/injection, schedule: Q03HX024 (ip), vehicle: saline): 113 % of control
T/C (endpoint: mean survival time, dose: 6.25 mg/kg/injection, schedule: Q03HX024 (ip), vehicle: other): 106 % of control
T/C (endpoint: mean survival time, dose: 9.5 mg/kg/injection, schedule: Q01DX005 (iv), vehicle: other): 104 % of control
T/C (endpoint: mean survival time, dose: 11.0 mg/kg/injection, schedule: Q03HX032 (ip), vehicle: saline with Tween-80): 123 % of control
T/C (endpoint: mean survival time, dose: 12.5 mg/kg/injection, schedule: Q03HX024 (ip), vehicle: other): 106 % of control
T/C (endpoint: mean survival time, dose: 12.5 mg/kg/injection, schedule: Q03HX024 (ip), vehicle: saline): 159 % of control
T/C (endpoint: mean survival time, dose: 19.0 mg/kg/injection, schedule: Q01DX005 (iv), vehicle: other): 111 % of control
T/C (endpoint: mean survival time, dose: 25.0 mg/kg/injection, schedule: Q01DX015 (ip), vehicle: carboxymethylcellulose (CMC)): 158 % of control
T/C (endpoint: mean survival time, dose: 33.0 mg/kg/injection, schedule: Q## X008 (ip), vehicle: other): 124 % of control
T/C (endpoint: mean survival time, dose: 33.0 mg/kg/injection, schedule: Q## X016 (ip), vehicle: other): 122 % of control
T/C (endpoint: mean survival time, dose: 37.5 mg/kg/injection, schedule: Q01DX005 (ip), vehicle: other): 159 % of control
T/C (endpoint: mean survival time, dose: 40.0 mg/kg/injection, schedule: Q06HX016 (ip), vehicle: Klucel (hydroxypropylcellulose) (HPC)): 154 % of control
T/C (endpoint: mean survival time, dose: 44.0 mg/kg/injection, schedule: Q03HX032 (ip), vehicle: saline with Tween-80): 159 % of control
T/C (endpoint: mean survival time, dose: 50.0 mg/kg/injection, schedule: Q01DX001 (ip), vehicle: saline): 114 % of control
T/C (endpoint: mean survival time, dose: 50.0 mg/kg/injection, schedule: Q01DX009 (oral), vehicle: carboxymethylcellulose (CMC)): 120 % of control
T/C (endpoint: mean survival time, dose: 50.0 mg/kg/injection, schedule: Q03HX024 (ip), vehicle: other): 151 % of control
T/C (endpoint: mean survival time, dose: 50.0 mg/kg/injection, schedule: Q03HX024 (ip), vehicle: saline): 151 % of control
T/C (endpoint: mean survival time, dose: 62.0 mg/kg/injection, schedule: Q03HX032 (ip), vehicle: carboxymethylcellulose (CMC)): 118 % of control
T/C (endpoint: mean survival time, dose: 66.0 mg/kg/injection, schedule: Q03HX032 (ip), vehicle: saline with Tween-80): 102 % of control and 116 % of control
T/C (endpoint: mean survival time, dose: 75.0 mg/kg/injection, schedule: Q03HX008 (ip), vehicle: alkali diluted with saline): 156 % of control
T/C (endpoint: mean survival time, dose: 93.0 mg/kg/injection, schedule: Q03HX032 (ip), vehicle: carboxymethylcellulose (CMC)): 96 % of control
T/C (endpoint: mean survival time, dose: 100.0 mg/kg/injection, schedule: Q01DX001 (ip), vehicle: saline): 120 % of control
T/C (endpoint: mean survival time, dose: 100.0 mg/kg/injection, schedule: Q01DX001 (oral), vehicle: other): 106 % of control
T/C (endpoint: mean survival time, dose: 100.0 mg/kg/injection, schedule: Q01DX009 (oral), vehicle: other): 121 % of control
T/C (endpoint: mean survival time, dose: 100.0 mg/kg/injection, schedule: Q03HX024 (ip), vehicle: saline): 104 % of control
T/C (endpoint: mean survival time, dose: 100.0 mg/kg/injection, schedule: Q04DX003 (ip), vehicle: alkali diluted with saline): 111 % of control
T/C (endpoint: mean survival time, dose: 100.0 mg/kg/injection, schedule: Q## X002 (oral), vehicle: other): 98 % of control
T/C (endpoint: mean survival time, dose: 100.0 mg/kg/injection, schedule: Q## X003 (oral), vehicle: other): 108 % of control
T/C (endpoint: mean survival time, dose: 100.0 mg/kg/injection, schedule: Q## X008 (oral), vehicle: other): 101 % of control
T/C (endpoint: mean survival time, dose: 100.0 mg/kg/injection, schedule: Q## X016 (oral), vehicle: other): 97 % of control
T/C (endpoint: mean survival time, dose: 100.0 mg/kg/injection, schedule: Q## X024 (oral), vehicle: other): 101 % of control
T/C (endpoint: mean survival time, dose: 150.0 mg/kg/injection, schedule: Q01DX001 (ip), vehicle: alkali diluted with saline): 104 % of control
T/C (endpoint: mean survival time, dose: 150.0 mg/kg/injection, schedule: Q01DX001 (ip), vehicle: other): 118 % of control
T/C (endpoint: mean survival time, dose: 150.0 mg/kg/injection, schedule: Q03HX024 (ip), vehicle: saline): 152 % of control
T/C (endpoint: mean survival time, dose: 150.0 mg/kg/injection, schedule: Q08DX002 (ip), vehicle: alkali diluted with saline): 102 % of control
T/C (endpoint: mean survival time, dose: 150.0 mg/kg/injection, schedule: Q## X002 (ip), vehicle: other): 114 % of control
T/C (endpoint: mean survival time, dose: 150.0 mg/kg/injection, schedule: Q## X016 (ip), vehicle: other): 153 % of control
T/C (endpoint: mean survival time, dose: 200.0 mg/kg/injection, schedule: Q01DX001 (oral), vehicle: other): 103 % of control
T/C (endpoint: mean survival time, dose: 200.0 mg/kg/injection, schedule: Q01DX009 (ip), vehicle: saline): 119 % of control
T/C (endpoint: mean survival time, dose: 200.0 mg/kg/injection, schedule: Q01DX009 (oral), vehicle: carboxymethylcellulose (CMC)): 157 % of control
T/C (endpoint: mean survival time, dose: 200.0 mg/kg/injection, schedule: Q04DX003 (ip), vehicle: alkali diluted with saline): 112 % of control
T/C (endpoint: mean survival time, dose: 200.0 mg/kg/injection, schedule: Q## X002 (oral), vehicle: other): 104 % of control
T/C (endpoint: mean survival time, dose: 200.0 mg/kg/injection, schedule: Q## X003 (oral), vehicle: other): 112 % of control
T/C (endpoint: mean survival time, dose: 200.0 mg/kg/injection, schedule: Q## X008 (oral), vehicle: other): 111 % of control
T/C (endpoint: mean survival time, dose: 200.0 mg/kg/injection, schedule: Q## X016 (oral), vehicle: other): 106 % of control
T/C (endpoint: mean survival time, dose: 200.0 mg/kg/injection, schedule: Q## X024 (oral), vehicle: other): 102 % of control
T/C (endpoint: mean survival time, dose: 280.0 mg/kg/injection, schedule: Q01DX001 (ip), vehicle: saline with Tween-80): 118 % of control and 119 % of control
T/C (endpoint: mean survival time, dose: 300.0 mg/kg/injection, schedule: Q01DX001 (ip), vehicle: alkali diluted with saline): 108 % of control
T/C (endpoint: mean survival time, dose: 300.0 mg/kg/injection, schedule: Q01DX009 (ip), vehicle: saline with Tween-80): 107 % of control
T/C (endpoint: mean survival time, dose: 300.0 mg/kg/injection, schedule: Q08DX002 (ip), vehicle: alkali diluted with saline): 105 % of control
T/C (endpoint: mean survival time, dose: 400.0 mg/kg/injection, schedule: Q01DX001 (ip), vehicle: saline): 109 % of control
T/C (endpoint: mean survival time, dose: 400.0 mg/kg/injection, schedule: Q01DX001 (oral), vehicle: other): 105 % of control
T/C (endpoint: mean survival time, dose: 400.0 mg/kg/injection, schedule: Q01DX009 (oral), vehicle: carboxymethylcellulose (CMC)): 153 % of control
T/C (endpoint: mean survival time, dose: 400.0 mg/kg/injection, schedule: Q01DX009 (oral), vehicle: other): 156 % of control
T/C (endpoint: mean survival time, dose: 400.0 mg/kg/injection, schedule: Q01DX015 (ip), vehicle: carboxymethylcellulose (CMC)): 103 % of control
T/C (endpoint: mean survival time, dose: 400.0 mg/kg/injection, schedule: Q03HX024 (ip), vehicle: clinical formulation): 98 % of control
T/C (endpoint: mean survival time, dose: 400.0 mg/kg/injection, schedule: Q## X002 (oral), vehicle: other): 105 % of control
T/C (endpoint: mean survival time, dose: 400.0 mg/kg/injection, schedule: Q## X003 (ip), vehicle: other): 150 % of control
T/C (endpoint: mean survival time, dose: 400.0 mg/kg/injection, schedule: Q## X003 (oral), vehicle: other): 116 % of control
T/C (endpoint: mean survival time, dose: 400.0 mg/kg/injection, schedule: Q## X008 (oral), vehicle: other): 110 % of control
T/C (endpoint: mean survival time, dose: 400.0 mg/kg/injection, schedule: Q## X016 (oral), vehicle: other): 120 % of control
T/C (endpoint: mean survival time, dose: 400.0 mg/kg/injection, schedule: Q## X024 (oral), vehicle: other): 122 % of control
T/C (endpoint: mean survival time, dose: 427.0 mg/kg/injection, schedule: Q01DX001 (ip), vehicle: saline with Tween-80): 121 % of control and 122 % of control
T/C (endpoint: mean survival time, dose: 600.0 mg/kg/injection, schedule: Q01DX001 (ip), vehicle: alkali diluted with saline): 108 % of control
T/C (endpoint: mean survival time, dose: 600.0 mg/kg/injection, schedule: Q01DX005 (ip), vehicle: other): 97 % of control
T/C (endpoint: mean survival time, dose: 600.0 mg/kg/injection, schedule: Q01DX009 (ip), vehicle: other): 108 % of control
T/C (endpoint: mean survival time, dose: 600.0 mg/kg/injection, schedule: Q08DX002 (ip), vehicle: alkali diluted with saline): 105 % of control
T/C (endpoint: mean survival time, dose: 800.0 mg/kg/injection, schedule: Q01DX001 (oral), vehicle: other): 106 % of control
T/C (endpoint: mean survival time, dose: 800.0 mg/kg/injection, schedule: Q## X002 (oral), vehicle: other): 115 % of control
T/C (endpoint: mean survival time, dose: 800.0 mg/kg/injection, schedule: Q## X003 (oral), vehicle: other): 107 % of control
T/C (endpoint: mean survival time, dose: 800.0 mg/kg/injection, schedule: Q## X008 (oral), vehicle: other): 123 % of control
T/C (endpoint: mean survival time, dose: 800.0 mg/kg/injection, schedule: Q## X024 (oral), vehicle: other): 155 % of control
T/C (endpoint: mean survival time, dose: 833.0 mg/kg/injection, schedule: Q01DX001 (ip), vehicle: saline): 153 % of control
T/C (endpoint: mean survival time, dose: 1200.0 mg/kg/injection, schedule: Q01DX001 (ip), vehicle: other): 158 % of control
T/C (endpoint: mean survival time, dose: 1388.0 mg/kg/injection, schedule: Q01DX001 (ip), vehicle: saline): 157 % of control
T/C (endpoint: mean survival time, dose: 1600.0 mg/kg/injection, schedule: Q## X024 (ip), vehicle: other): 104 % of control
T/C (endpoint: mean survival time, dose: 2400.0 mg/kg/injection, schedule: Q01DX001 (ip), vehicle: saline): 150 % of control and 152 % of control
T/C (endpoint: mean survival time, dose: 2400.0 mg/kg/injection, schedule: Q## X016 (ip), vehicle: other): 100 % of control
T/C (endpoint: median survival time, dose: 37.5 mg/kg/injection, schedule: Q01DX009 (ip), vehicle: water): 155 % of control and 157 % of control
T/C (endpoint: median survival time, dose: 50.0 mg/kg/injection, schedule: Q01DX009 (ip), vehicle: other): 150 % of control
T/C (endpoint: median survival time, dose: 100.0 mg/kg/injection, schedule: Q04DX003 (ip), vehicle: other): 105 % of control
T/C (endpoint: median survival time, dose: 100.0 mg/kg/injection, schedule: Q04DX003 (sc), vehicle: other): 100 % of control
T/C (endpoint: median survival time, dose: 150.0 mg/kg/injection, schedule: Q01DX009 (ip), vehicle: water): 122 % of control and 124 % of control
T/C (endpoint: median survival time, dose: 200.0 mg/kg/injection, schedule: Q04DX003 (ip), vehicle: other): 120 % of control
T/C (endpoint: median survival time, dose: 300.0 mg/kg/injection, schedule: Q01DX009 (ip), vehicle: water): 105 % of control and 106 % of control
T/C (endpoint: median survival time, dose: 400.0 mg/kg/injection, schedule: Q04DX003 (ip), vehicle: other): 100 % of control
T/C (endpoint: median survival time, dose: 400.0 mg/kg/injection, schedule: Q04DX003 (sc), vehicle: other): 120 % of control
T/C (endpoint: median survival time, dose: 500.0 mg/kg/injection, schedule: Q01DX001 (ip), vehicle: saline): 150 % of control
T/C (endpoint: median survival time, dose: 1388.0 mg/kg/injection, schedule: Q01DX001 (ip), vehicle: saline): 157 % of control
